Where “and” joins values, the source holds several entries; their conditions need not be identical. Equal values may be shown once. Read-outs that look alike come from different tables or passages of the source.
What was measured:
Assay type in all cases: biochemical
DYRK3 = target: T1, DYRK3 (Homo sapiens, UniProt O43781); experiment: DYRKs kinase activity assay (33P-ATP, DYRKtide substrate): DYRK3
T1 construct: purchased Reaction Biology Corporation (assay service)
T1 sequence (O43781 1-588): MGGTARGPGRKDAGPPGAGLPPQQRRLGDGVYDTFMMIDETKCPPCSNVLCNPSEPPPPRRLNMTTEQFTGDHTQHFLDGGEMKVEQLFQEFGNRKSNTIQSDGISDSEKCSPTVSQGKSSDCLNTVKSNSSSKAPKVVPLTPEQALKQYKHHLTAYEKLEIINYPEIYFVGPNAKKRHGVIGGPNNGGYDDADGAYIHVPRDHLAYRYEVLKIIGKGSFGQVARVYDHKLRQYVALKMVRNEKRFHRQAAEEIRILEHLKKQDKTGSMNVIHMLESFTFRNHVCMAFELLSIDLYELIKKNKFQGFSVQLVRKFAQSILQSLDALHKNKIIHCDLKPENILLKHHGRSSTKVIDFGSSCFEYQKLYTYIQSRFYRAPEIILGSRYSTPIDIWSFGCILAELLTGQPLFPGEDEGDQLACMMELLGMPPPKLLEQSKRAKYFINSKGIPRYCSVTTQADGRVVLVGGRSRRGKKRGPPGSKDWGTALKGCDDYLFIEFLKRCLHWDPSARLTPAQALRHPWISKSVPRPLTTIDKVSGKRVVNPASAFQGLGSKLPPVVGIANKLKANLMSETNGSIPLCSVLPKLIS

DYRK1A = target: T2, DYRK1A (Homo sapiens, UniProt Q13627); experiment: DYRKs kinase activity assay (33P-ATP, DYRKtide substrate): DYRK1A
T2 construct: purchased Reaction Biology Corporation (assay service)

[1] = target: T3, panel of 370 protein kinases (Homo sapiens, UniProt P36507); experiment: Kinase inhibitor specificity profiling (Reaction Biology Corporation); parameters: % Enzyme Activity (relative to DMSO controls): concentration or dose not given beside the values; details: 2 h, kinase MEK2; read-out: % Enzyme Activity (relative to DMSO controls)
T3 construct: purchased Reaction Biology Corporation (assay service)

[2] = target: T4, panel of 370 protein kinases (Homo sapiens, UniProt Q96PY6); experiment: as above; parameters: % Enzyme Activity (relative to DMSO controls): concentration or dose not given beside the values; details: 2 h, kinase NEK1; read-out: % Enzyme Activity (relative to DMSO controls)
T4 construct: purchased Reaction Biology Corporation (assay service)

[3] = target: T5, panel of 370 protein kinases (Homo sapiens, UniProt Q04912); experiment: as above; parameters: % Enzyme Activity (relative to DMSO controls): concentration or dose not given beside the values; details: 2 h, kinase RON/MST1R; read-out: % Enzyme Activity (relative to DMSO controls)
T5 construct: purchased Reaction Biology Corporation (assay service)

[4] = target: T6, panel of 370 protein kinases (Homo sapiens, UniProt P68400); experiment: as above; parameters: % Enzyme Activity (relative to DMSO controls): concentration or dose not given beside the values; details: 2 h, kinase CK2a; read-out: % Enzyme Activity (relative to DMSO controls)
T6 construct: purchased Reaction Biology Corporation (assay service)

[5] = target: T7, panel of 370 protein kinases (Homo sapiens, UniProt P24723); experiment: as above; parameters: % Enzyme Activity (relative to DMSO controls): concentration or dose not given beside the values; details: 2 h, kinase PKCeta; read-out: % Enzyme Activity (relative to DMSO controls)
T7 construct: purchased Reaction Biology Corporation (assay service)

[6] = target: T8, panel of 370 protein kinases (Homo sapiens, UniProt P17252); experiment: as above; parameters: % Enzyme Activity (relative to DMSO controls): concentration or dose not given beside the values; details: 2 h, kinase PKCa; read-out: % Enzyme Activity (relative to DMSO controls)
T8 construct: purchased Reaction Biology Corporation (assay service)

[7] = target: T9, panel of 370 protein kinases (Homo sapiens, UniProt P49761); experiment: as above; parameters: % Enzyme Activity (relative to DMSO controls): concentration or dose not given beside the values; details: 2 h, kinase CLK3; read-out: % Enzyme Activity (relative to DMSO controls)
T9 construct: purchased Reaction Biology Corporation (assay service)

[8] = target: T10, panel of 370 protein kinases (Homo sapiens, UniProt Q86V86); experiment: as above; parameters: % Enzyme Activity (relative to DMSO controls): concentration or dose not given beside the values; details: 2 h, kinase PIM3; read-out: % Enzyme Activity (relative to DMSO controls)
T10 construct: purchased Reaction Biology Corporation (assay service)

[9] = target: T11, panel of 370 protein kinases (Homo sapiens, UniProt Q08881); experiment: as above; parameters: % Enzyme Activity (relative to DMSO controls): concentration or dose not given beside the values; details: kinase ITK
T11 construct: purchased Reaction Biology Corporation (assay service)

[10] = target: T12, panel of 370 protein kinases (Homo sapiens, UniProt Q00535); experiment: as above; parameters: % Enzyme Activity (relative to DMSO controls): concentration or dose not given beside the values; details: 2 h, read-out: % Enzyme Activity (relative to DMSO controls)
T12 construct: purchased Reaction Biology Corporation (assay service)

[11] = target: T13, panel of 370 protein kinases (Homo sapiens, UniProt P49840); experiment: as above; parameters: % Enzyme Activity (relative to DMSO controls): concentration or dose not given beside the values; details: 2 h, kinase GSK3a; read-out: % Enzyme Activity (relative to DMSO controls)
T13 construct: purchased Reaction Biology Corporation (assay service)

[12] = target: T14, panel of 370 protein kinases (Homo sapiens, UniProt P28482); experiment: as above; parameters: % Enzyme Activity (relative to DMSO controls): concentration or dose not given beside the values; details: 2 h, kinase ERK2/MAPK1; read-out: % Enzyme Activity (relative to DMSO controls)
T14 construct: purchased Reaction Biology Corporation (assay service)

[13] = target: T15, panel of 370 protein kinases (Homo sapiens, UniProt Q02156); experiment: as above; parameters: % Enzyme Activity (relative to DMSO controls): concentration or dose not given beside the values; details: 2 h, kinase PKCepsilon; read-out: % Enzyme Activity (relative to DMSO controls)
T15 construct: purchased Reaction Biology Corporation (assay service)
T15 sequence (Q02156 whole entry): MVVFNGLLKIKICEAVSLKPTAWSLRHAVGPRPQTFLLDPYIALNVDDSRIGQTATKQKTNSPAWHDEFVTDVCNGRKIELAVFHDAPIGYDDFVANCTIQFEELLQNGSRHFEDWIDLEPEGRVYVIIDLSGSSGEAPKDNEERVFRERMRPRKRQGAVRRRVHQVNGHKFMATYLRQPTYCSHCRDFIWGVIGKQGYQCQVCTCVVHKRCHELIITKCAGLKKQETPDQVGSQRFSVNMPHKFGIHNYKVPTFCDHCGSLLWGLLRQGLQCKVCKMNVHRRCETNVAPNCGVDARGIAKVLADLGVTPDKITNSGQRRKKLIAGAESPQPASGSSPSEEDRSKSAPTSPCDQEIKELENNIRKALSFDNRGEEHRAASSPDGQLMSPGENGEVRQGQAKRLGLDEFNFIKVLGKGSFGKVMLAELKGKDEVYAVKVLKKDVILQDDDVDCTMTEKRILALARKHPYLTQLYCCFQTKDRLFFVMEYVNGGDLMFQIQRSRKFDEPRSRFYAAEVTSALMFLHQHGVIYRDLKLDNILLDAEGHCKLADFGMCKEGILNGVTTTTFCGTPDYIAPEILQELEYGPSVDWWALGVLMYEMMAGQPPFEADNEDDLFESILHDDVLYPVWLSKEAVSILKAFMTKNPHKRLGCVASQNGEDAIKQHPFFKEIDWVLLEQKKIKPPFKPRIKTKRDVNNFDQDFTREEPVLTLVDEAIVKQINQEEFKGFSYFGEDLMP

T11 sequence (Q08881 whole entry): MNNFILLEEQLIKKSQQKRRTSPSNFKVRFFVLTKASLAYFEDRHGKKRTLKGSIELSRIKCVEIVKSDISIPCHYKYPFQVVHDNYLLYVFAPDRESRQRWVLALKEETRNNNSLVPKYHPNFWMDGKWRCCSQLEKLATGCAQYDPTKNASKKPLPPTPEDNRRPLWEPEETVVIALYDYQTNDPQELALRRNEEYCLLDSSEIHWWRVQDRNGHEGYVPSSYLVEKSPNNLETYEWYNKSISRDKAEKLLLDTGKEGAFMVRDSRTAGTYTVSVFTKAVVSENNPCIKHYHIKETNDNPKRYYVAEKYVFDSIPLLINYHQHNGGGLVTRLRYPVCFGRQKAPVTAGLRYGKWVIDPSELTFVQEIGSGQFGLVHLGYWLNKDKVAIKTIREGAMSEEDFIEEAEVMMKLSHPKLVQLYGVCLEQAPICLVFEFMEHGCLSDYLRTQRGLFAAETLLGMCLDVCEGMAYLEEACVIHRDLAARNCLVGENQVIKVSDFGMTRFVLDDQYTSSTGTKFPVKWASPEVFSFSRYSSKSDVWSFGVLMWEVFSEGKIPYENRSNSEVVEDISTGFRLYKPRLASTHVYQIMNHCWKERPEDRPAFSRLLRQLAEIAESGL
T12 sequence (Q00535 whole entry): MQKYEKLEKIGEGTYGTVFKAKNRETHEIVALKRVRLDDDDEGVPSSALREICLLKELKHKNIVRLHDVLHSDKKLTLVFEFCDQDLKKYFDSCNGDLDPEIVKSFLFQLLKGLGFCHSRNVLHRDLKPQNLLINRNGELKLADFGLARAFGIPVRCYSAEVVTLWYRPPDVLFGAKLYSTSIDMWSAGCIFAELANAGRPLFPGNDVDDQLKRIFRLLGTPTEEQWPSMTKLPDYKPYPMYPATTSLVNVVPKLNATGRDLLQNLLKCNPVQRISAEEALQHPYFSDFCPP
T6 sequence (P68400 whole entry): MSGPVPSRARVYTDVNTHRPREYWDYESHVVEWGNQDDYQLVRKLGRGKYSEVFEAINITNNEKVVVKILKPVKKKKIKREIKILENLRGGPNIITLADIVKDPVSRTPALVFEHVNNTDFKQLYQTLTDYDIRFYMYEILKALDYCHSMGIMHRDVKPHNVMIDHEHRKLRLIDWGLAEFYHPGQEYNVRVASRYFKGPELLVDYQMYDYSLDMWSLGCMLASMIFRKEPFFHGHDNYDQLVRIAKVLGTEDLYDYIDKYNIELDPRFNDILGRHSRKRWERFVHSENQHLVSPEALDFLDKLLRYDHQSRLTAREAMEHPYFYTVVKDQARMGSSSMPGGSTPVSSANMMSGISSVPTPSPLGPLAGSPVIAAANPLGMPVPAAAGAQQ
T13 sequence (P49840 whole entry): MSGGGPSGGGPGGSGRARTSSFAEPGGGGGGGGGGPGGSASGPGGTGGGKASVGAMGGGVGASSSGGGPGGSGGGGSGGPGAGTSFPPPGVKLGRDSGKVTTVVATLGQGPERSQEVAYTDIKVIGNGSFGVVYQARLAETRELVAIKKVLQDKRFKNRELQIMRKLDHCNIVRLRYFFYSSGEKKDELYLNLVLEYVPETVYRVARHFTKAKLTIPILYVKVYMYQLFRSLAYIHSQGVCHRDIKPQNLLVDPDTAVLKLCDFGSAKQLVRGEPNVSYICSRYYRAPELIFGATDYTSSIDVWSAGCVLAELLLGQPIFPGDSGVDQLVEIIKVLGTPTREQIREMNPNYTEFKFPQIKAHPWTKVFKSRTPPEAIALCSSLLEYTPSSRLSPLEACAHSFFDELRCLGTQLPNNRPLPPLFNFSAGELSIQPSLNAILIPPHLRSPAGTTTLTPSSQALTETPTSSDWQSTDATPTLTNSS
T5 sequence (Q04912 25-1400): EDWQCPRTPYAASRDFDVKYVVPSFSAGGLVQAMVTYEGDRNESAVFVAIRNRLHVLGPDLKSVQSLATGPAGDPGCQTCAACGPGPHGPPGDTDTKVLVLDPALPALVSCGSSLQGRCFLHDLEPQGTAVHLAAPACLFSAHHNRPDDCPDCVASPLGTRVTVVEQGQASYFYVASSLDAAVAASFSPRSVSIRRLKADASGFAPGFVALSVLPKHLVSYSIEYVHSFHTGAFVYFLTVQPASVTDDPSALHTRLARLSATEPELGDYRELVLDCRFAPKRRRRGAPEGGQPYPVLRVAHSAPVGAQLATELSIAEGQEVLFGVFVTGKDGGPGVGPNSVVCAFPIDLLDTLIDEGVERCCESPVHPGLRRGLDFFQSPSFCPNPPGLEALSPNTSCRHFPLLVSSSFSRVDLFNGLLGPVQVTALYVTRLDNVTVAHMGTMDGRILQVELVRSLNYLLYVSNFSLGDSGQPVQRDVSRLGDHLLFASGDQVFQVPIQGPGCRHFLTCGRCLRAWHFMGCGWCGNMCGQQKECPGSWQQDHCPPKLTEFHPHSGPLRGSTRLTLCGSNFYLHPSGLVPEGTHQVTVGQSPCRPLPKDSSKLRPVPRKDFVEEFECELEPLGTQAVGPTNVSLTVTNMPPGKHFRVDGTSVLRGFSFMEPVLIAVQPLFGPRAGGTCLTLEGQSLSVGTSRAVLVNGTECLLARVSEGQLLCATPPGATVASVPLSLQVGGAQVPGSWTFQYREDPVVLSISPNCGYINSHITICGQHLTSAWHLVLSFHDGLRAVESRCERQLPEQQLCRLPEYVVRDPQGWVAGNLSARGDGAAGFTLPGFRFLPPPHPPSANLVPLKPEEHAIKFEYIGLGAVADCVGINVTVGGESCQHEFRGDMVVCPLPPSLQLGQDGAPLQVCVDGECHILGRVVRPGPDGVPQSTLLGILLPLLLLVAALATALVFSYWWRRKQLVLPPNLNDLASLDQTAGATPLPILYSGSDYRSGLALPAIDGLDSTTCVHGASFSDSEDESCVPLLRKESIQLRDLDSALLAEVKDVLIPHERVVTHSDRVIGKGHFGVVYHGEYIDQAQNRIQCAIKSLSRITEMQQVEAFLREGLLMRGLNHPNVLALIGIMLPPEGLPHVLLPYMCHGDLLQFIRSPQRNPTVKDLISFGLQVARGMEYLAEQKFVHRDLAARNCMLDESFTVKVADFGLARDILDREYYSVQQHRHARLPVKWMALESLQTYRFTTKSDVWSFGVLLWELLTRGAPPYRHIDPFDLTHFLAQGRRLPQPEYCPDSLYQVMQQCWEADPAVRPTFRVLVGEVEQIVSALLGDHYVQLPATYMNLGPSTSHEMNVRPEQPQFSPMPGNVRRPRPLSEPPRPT

For `CCN1CCN(C(=O)c2ccc(Nc3ncc(F)c(-c4ccc5nc(N(C)C)sc5c4)n3)nc2)CC1` [YK-2-69], which IC50 (DYRK3) is on record?
The IC50 was > 1000 nM.

What about the “% Inhibition DYRK3” value (DYRK3; 0.000762079 µM, duplicates) of the same compound?
Its value is -8.00% and -1.03%.

And the “% Inhibition DYRK3” value (DYRK3; 0.00228624 µM, duplicates)?
The value was -10.03% and -2.95%.

What about the “% Inhibition DYRK3” value (DYRK3; 0.00685871 µM, duplicates) of the same compound?
The value was -8.21% and -7.66%.

What about the “% Inhibition DYRK3” value (DYRK3; 0.0205761 µM, duplicates) of the same compound?
Its value is -2.65% and -5.02%.

And the “% Inhibition DYRK3” value (DYRK3; 0.0617284 µM, duplicates)?
Its value is 11.61%.

What about the inhibition at 0.0617284 µM (DYRK3; 0.0617284 µM, duplicates) of the same compound?
The inhibition at 0.0617284 µM was 6.58%.

What about the “% Inhibition DYRK3” value (DYRK3; 0.185185 µM, duplicates) of the same compound?
The value was 29.90%.

What about the inhibition at 0.185185 µM (DYRK3; 0.185185 µM, duplicates) of the same compound?
Its inhibition at 0.185185 µM is 28.2%.

And the “% Inhibition DYRK3” value (DYRK3; 0.555556 µM, duplicates)?
The value was 51.81%.

What about the inhibition at 0.555556 µM (DYRK3; 0.555556 µM, duplicates) of the same compound?
The inhibition at 0.555556 µM was 49.4%.

And the “% Inhibition DYRK3” value (DYRK3; 1.66667 µM, duplicates)?
The value was 53.48%.

What about the “% Inhibition DYRK3” value (DYRK3; 5 µM, duplicates) of the same compound?
The value was 56.27%.

What about the inhibition at 5 µM (DYRK3; 5 µM, duplicates) of the same compound?
Its inhibition at 5 µM is 56.1%.

What about the inhibition at 1.66667 µM (DYRK3; read-out: % Inhibition DYRK3, 1.66667 µM, duplicates) of the same compound?
The inhibition at 1.66667 µM was 50.8%.

And the “selectivity over DYRK3” value (DYRK3; vs DYRK2)?
Its value is “more than 100 fold”.

And the IC50 (DYRK1A)?
Its IC50 is > 1000 nM.

What about the “% Inhibition DYRK1A” value (DYRK1A; 0.000508053 µM, duplicates) of the same compound?
The value was -3.57% and 0.43%.

What about the “% Inhibition DYRK1A” value (DYRK1A; 0.00152416 µM, duplicates) of the same compound?
The value was -1.37% and 1.70%.

And the “% Inhibition DYRK1A” value (DYRK1A; 0.00457247 µM, duplicates)?
The value was 3.49% and -1.24%.

What about the “% Inhibition DYRK1A” value (DYRK1A; 0.0137174 µM, duplicates) of the same compound?
The value was 0.24% and -4.62%.

What about the “% Inhibition DYRK1A” value (DYRK1A; 0.0411523 µM, duplicates) of the same compound?
The value was -1.12% and -1.40%.

And the “% Inhibition DYRK1A” value (DYRK1A; 0.123457 µM, duplicates)?
The value was 14.11%.

And the inhibition at 0.123457 µM (DYRK1A; 0.123457 µM, duplicates)?
The inhibition at 0.123457 µM was 10.3%.

And the “% Inhibition DYRK1A” value (DYRK1A; 0.37037 µM, duplicates)?
The value was 34.28%.

What about the inhibition at 0.37037 µM (DYRK1A; 0.37037 µM, duplicates) of the same compound?
Its inhibition at 0.37037 µM is 26%.

And the “% Inhibition DYRK1A” value (DYRK1A; 1.11111 µM, duplicates)?
The value was 40.80%.

And the inhibition at 1.11111 µM (DYRK1A; 1.11111 µM, duplicates)?
The inhibition at 1.11111 µM was 45.5%.

And the “% Inhibition DYRK1A” value (DYRK1A; 3.33333 µM, duplicates)?
The value was 66.09%.

What about the inhibition at 3.33333 µM (DYRK1A; 3.33333 µM, duplicates) of the same compound?
The inhibition at 3.33333 µM was 64.9%.

And the “% Inhibition DYRK1A” value (DYRK1A; 10 µM, duplicates)?
Its value is 69.07%.

What about the inhibition at 10 µM (DYRK1A; 10 µM, duplicates) of the same compound?
Its inhibition at 10 µM is 68.2%.

And the “selectivity over DYRK1A” value (DYRK1A; vs DYRK2)?
Its value is “more than 100 fold”.

And the remaining activity at 1 µM [1]?
Its remaining activity at 1 µM is 97.4%.

And the remaining activity at 1 µM [2]?
The remaining activity at 1 µM was 69.2%.

And the remaining activity at 1 µM [3]?
Its remaining activity at 1 µM is 89.5%.

And the remaining activity at 1 µM [4]?
The remaining activity at 1 µM was 52.3%.

And the remaining activity at 1 µM [5]?
Its remaining activity at 1 µM is 77%.

What about the remaining activity at 1 µM [6] of the same compound?
The remaining activity at 1 µM was 80%.

What about the remaining activity at 1 µM [7] of the same compound?
Its remaining activity at 1 µM is 80.5%.

And the remaining activity at 1 µM [8]?
The remaining activity at 1 µM was 55.8%.

And the “% Enzyme Activity (relative to DMSO controls)” value [9]?
The value was 117.90% and 109.49%.

And the remaining activity at 1 µM ([10]; kinase CDK5/P25)?
Its remaining activity at 1 µM is 92.2%.

And the remaining activity at 1 µM ([10]; kinase CDK5/p35)?
The remaining activity at 1 µM was 90%.

What about the remaining activity at 1 µM [11] of the same compound?
The remaining activity at 1 µM was 42.3%.

And the remaining activity at 1 µM [12]?
Its remaining activity at 1 µM is 101%.

And the remaining activity at 1 µM [13]?
The remaining activity at 1 µM was 91.3%.
